Measurements from US9957264B2 (Merck Sharp & Dohme Corp., priority 2013, dated 2018).

Key:
[1] = target: JAK2 (recombinant purified GST-tagged catalytic domain) (Homo sapiens (Human), UniProt O60674); assay: Jak Biochemical HTRF Assay (JAK2); conditions: [ATP] 8.5 μM
[2] = target: JAK1 (recombinant purified GST-tagged catalytic domain) (Homo sapiens (Human), UniProt P23458); assay: Jak Biochemical HTRF Assay (JAK1); conditions: [ATP] 31.8 μM
Summary of the method: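 Compounds in DMSO were pre-equilibrated with enzyme and biotinylated peptide, then ATP was added and the reaction proceeded 120 min at room temperature. EDTA-based stop buffer with detection reagents was added, and after 60 min the time-resolved FRET ratio was read. IC50s came from 4-parameter dose–response fits.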

Chain of JAK1 (recombinant purified GST-tagged catalytic domain) (P23458 875-1153): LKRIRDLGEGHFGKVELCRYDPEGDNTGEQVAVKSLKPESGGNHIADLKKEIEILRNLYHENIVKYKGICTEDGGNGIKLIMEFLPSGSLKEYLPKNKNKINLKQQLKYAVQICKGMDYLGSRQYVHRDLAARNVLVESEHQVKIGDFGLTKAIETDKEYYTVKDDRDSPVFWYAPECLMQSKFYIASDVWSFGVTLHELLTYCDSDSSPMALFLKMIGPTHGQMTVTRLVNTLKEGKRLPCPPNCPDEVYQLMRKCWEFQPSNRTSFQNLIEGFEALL
Chain of JAK2 (recombinant purified GST-tagged catalytic domain) (O60674 849-1124): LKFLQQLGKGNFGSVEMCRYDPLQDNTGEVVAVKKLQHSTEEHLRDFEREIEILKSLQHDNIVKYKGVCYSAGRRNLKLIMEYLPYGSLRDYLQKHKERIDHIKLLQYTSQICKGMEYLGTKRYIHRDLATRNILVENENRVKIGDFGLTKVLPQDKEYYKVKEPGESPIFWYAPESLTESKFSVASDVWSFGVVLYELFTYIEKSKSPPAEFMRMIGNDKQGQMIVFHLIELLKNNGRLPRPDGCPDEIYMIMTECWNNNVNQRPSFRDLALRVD

Structure (SMILES) | IC50 [1] | IC50 [2]
CCNC(c1ccc(Nc2nn([C@]3(CC#N)CC[C@@H](C(=O)OC(C)(C)C)OC3)c3cc[nH]c(=O)c23)cc1)C(F)(F)F (single isomer, unassigned) [Example 5-207, (2S,5S)-tert-butyl 5-(cyanomethyl)-5-(3-((4-((R or S)-1-(ethylamino)-2,2,2-trifluoroethyl)phenyl)amino)-4-oxo-4,5-dihydro-1H-pyrazolo[4,3-c]pyridin-1-yl)tetrahydro-2H-pyran-2-carboxylate] | 0.26 nM | 0.19 nM
CC(C)(C)OC(=O)N1CC[C@](CC#N)(n2nc(Nc3ccc4c(c3)CN(CC(F)(F)F)S4(=O)=O)c3c(=O)[nH]ccc32)[C@H](F)C1 [Example 5-24, tert-butyl (3R,4R)-4-(cyanomethyl)-4-(3-{[1,1-dioxido-2-(2,2,2-trifluoroethyl)-2,3-dihydro-1,2-benzisothiazol-5-yl]amino}-4-oxo-4,5-dihydro-1H-pyrazolo[4,3-c]pyridin-1-yl)-3-fluoropiperidine-1-carboxylate] | 0.25 nM | 0.2 nM
CC(C)(C)NS(=O)(=O)c1ccc(Nc2nn([C@]3(CC#N)CCCOC3)c3cc[nH]c(=O)c23)cc1 [Example 5-184, N-tert-butyl-4-({1-[(3S)-3-(cyanomethyl)tetrahydro-2H-pyran-3-yl]-4-oxo-4,5-dihydro-1H-pyrazolo[4,3-c]pyridin-3-yl}amino) benzenesulfonamide] | 0.6 nM | 0.2 nM
CC(C)NC(C)(C)c1ccc(Nc2nn([C@]3(CC#N)CC[C@@H](C(=O)OC(C)(C)C)OC3)c3cc[nH]c(=O)c23)cc1 [Example 5-274, (2S,5S)-tert-butyl 5-(cyanomethyl)-5-(3-((4-(2-(isopropylamino)propan-2-yl)phenyl)amino)-4-oxo-4,5-dihydro-1H-pyrazolo[4,3-c]pyridin-1-yl)tetrahydro-2H-pyran-2-carboxylate] | 0.26 nM | 0.36 nM
CC(C)NC(c1ccc(Nc2nn([C@]3(CC#N)CCCOC3)c3cc[nH]c(=O)c23)cc1)C(F)(F)F (single isomer, unassigned) [Example 5-205, [(3S)-3-{4-oxo-3-[(4-{(1R or 1S)-2,2,2-trifluoro-1-[(1-methylethyl)amino]ethyl}phenyl)amino]-4,5-dihydro-1H-pyrazolo[4,3-c]pyridin-1-yl}tetrahydro-2H-pyran-3-yl]acetonitrile] | 0.2 nM | 0.17 nM
CC(C)(C)OC(=O)[C@H]1CC[C@@](CC#N)(n2nc(Nc3ccc([C@H](N)C(F)(F)F)cc3)c3c(=O)[nH]ccc32)CO1 (single isomer, unassigned) [Example 5-52, (2R,5S)-tert-butyl 5-(3-((4-((S or R)-1-amino-2,2,2-trifluoroethyl)phenyl)amino)-4-oxo-4,5-dihydro-1H-pyrazolo[4,3-c]pyridin-1-yl)-5-(cyanomethyl) tetrahydro-2H-pyran-2-carboxylate] | 30.3 nM | 11.7 nM
CC(C)(C)OC(=O)N1CCC(CC#N)(n2nc(Nc3ccc(C4(C(F)(F)F)CCN(Cc5ccccc5)C4)cc3)c3c(=O)[nH]ccc32)CC1 (single isomer, unassigned) [Example 5-280, (S or R) tert-butyl 4-(3-((4-(1-benzyl-3-(trifluoromethyl)pyrrolidin-3-yl)phenyl)amino)-4-oxo-4,5-dihydro-1H-pyrazolo[4,3-c]pyridin-1-yl)-4-(cyanomethyl)piperidine-1-carboxylate] | 9.56 nM | 7.33 nM
CC(C)(C)OC(=O)[C@@H]1CC[C@@](CC#N)(n2nc(Nc3ccc4c(c3)CN(C3CCCC3)C4=O)c3c(=O)[nH]ccc32)CO1 [Example 5-102, (2S,5S)-tert-butyl 5-(cyanomethyl)-5-(3-((2-cyclopentyl-1-oxoisoindolin-5-yl)amino)-4-oxo-4,5-dihydro-1H-pyrazolo[4,3-c]pyridin-1-yl)tetrahydro-2H-pyran-2-carboxylate] | 0.2 nM | 0.1 nM
CCNc1nn(C2(CC#N)CN(C(=O)OC(C)(C)C)C2)c2cc[nH]c(=O)c12 [Example 2-4, tert-butyl 3-(cyanomethyl)-3-[3-(ethylamino)-4-oxo-4,5-dihydro-1H-pyrazolo [4,3-c]pyridin-1-yl] azetidine-1-carboxylate] | > 1480 nM | 208 nM
N#CC[C@@]1(n2nc(Nc3ccc(C(N)C(F)(F)F)cc3)c3c(=O)[nH]ccc32)CCCOC1 (single isomer, unassigned) [Example 5-187, {(3S)-3-[3-({4-[(1R or 1S)-1-amino-2,2,2-trifluoroethyl]phenyl}amino)-4-oxo-4,5-dihydro-1H-pyrazolo[4,3-c]pyridin-1-yl]tetrahydro-2H-pyran-3-yl}acetonitrile] | 0.58 nM | 0.19 nM
CC(C)(C)S(=O)(=O)c1ccc(Nc2nn(C3(CC#N)CCOCC3)c3cc[nH]c(=O)c23)cc1 [Example 5-252, 2-(4-(3-((4-(tert-butylsulfonyl)phenyl)amino)-4-oxo-4,5-dihydro-1H-pyrazolo[4,3-c]pyridin-1-yl)tetrahydro-2H-pyran-4-yl)acetonitrile] | 0.84 nM | 0.34 nM
CC(C)(C)OC(=O)[C@@H]1CC[C@@](CC#N)(n2nc(Nc3ccc(C4(C(F)(F)F)CCCCN4)cc3)c3c(=O)[nH]ccc32)CO1 (single isomer, unassigned) [Example 5-287, (2S,5S)-tert-butyl 5-(cyanomethyl)-5-(4-oxo-3-((4-((S or R)-2-(trifluoromethyl)piperidin-2-yl)phenyl)amino)-4,5-dihydro-1H-pyrazolo[4,3-c]pyridin-1-yl)tetrahydro-2H-pyran-2-carboxylate] | 0.35 nM | 0.25 nM
CC(C)(C)OC(=O)N1CCC(CC#N)(n2nc(Nc3ccnc(F)c3)c3c(=O)[nH]ccc32)CC1 [Example 5-78, tert-butyl 4-(cyanomethyl)-4-{3-[(2-fluoropyridin-4-yl)amino]-4-oxo-4,5-dihydro-1H-pyrazolo[4,3-c]pyridin-1-yl}piperidine-1-carboxylate] | 2.12 nM | 0.18 nM
C[C@H]1CN(c2ccc3cc(Nc4nn([C@]5(CC#N)CC[C@@H](C(=O)OC(C)(C)C)OC5)c5cc[nH]c(=O)c45)ccc3n2)CCO1 [Example 5-228, (2S,5S)-tert-butyl 5-(cyanomethyl)-5-(3-((2-((S)-2-methylmorpholino)quinolin-6-yl)amino)-4-oxo-4,5-dihydro-1H-pyrazolo[4,3-c]pyridin-1-yl)tetrahydro-2H-pyran-2-carboxylate] | 1.06 nM | 0.25 nM
CC(C)(C)OC(=O)N1CCC(CC#N)(n2nc(Nc3cc(Cn4ccnn4)cc(Cn4ccnn4)c3)c3c(=O)[nH]ccc32)CC1 [Example 5-62, tert-butyl 4-(3-(3,5-bis((1H-1,2,3-triazol-1-yl)methyl)phenylamino)-4-oxo-4,5-dihydropyrazolo[4,3-c]pyridin-1-yl)-4-(cyanomethyl)piperidine-1-carboxylate] | 0.32 nM | 0.31 nM
Cc1ccc2cc(Nc3nn([C@]4(CC#N)CCCOC4)c4cc[nH]c(=O)c34)ccc2n1 [Example 5-226, (S)-2-(3-(3-((2-methylquinolin-6-yl)amino)-4-oxo-4,5-dihydro-1H-pyrazolo [4,3-c]pyridin-1-yl)tetrahydro-2H-pyran-3-yl)acetonitrile] | 2.94 nM | 0.11 nM

Now from value to compound:

IC50 [1] | IC50 [2] | Structure (SMILES)
0.21 nM | 0.21 nM | CC(C)(C)N1Cc2cc(Nc3nn([C@]4(CC#N)CC[C@@H](N5CC(F)C5)CC4)c4cc[nH]c(=O)c34)ccc2S1(=O)=O [Example 18-35]
0.26 nM | 0.22 nM | Cc1cc(Nc2nn([C@]3(CC#N)CC[C@@H](C(=O)OC(C)(C)C)OC3)c3cc[nH]c(=O)c23)ccc1C(=O)N1CC(C)OC(C)C1 (single isomer, unassigned) [Example 20-13, (2S,5S)-tert-butyl 5-(cyanomethyl)-5-(3-((4-((2S,6S or 2R,6R)-2,6-dimethylmorpholine-4-carbonyl)-3-methylphenyl)amino)-4-oxo-4,5-dihydro-1H-pyrazolo[4,3-c]pyridin-1-yl)tetrahydro-2H-pyran-2-carboxylate]
0.51 nM | 0.19 nM | Cc1cc(Nc2nn([C@]3(CC#N)CC[C@@H](C(=O)OC(C)(C)C)OC3)c3cc[nH]c(=O)c23)ccc1C(=O)N(C)CC(F)(F)F [Example 20-15, (2S,5S)-tert-butyl 5-(cyanomethyl)-5-(3-((3-methyl-4-(methyl(2,2,2-trifluoroethyl)carbamoyl)phenyl)amino)-4-oxo-4,5-dihydro-1H-pyrazolo[4,3-c]pyridin-1-yl)tetrahydro-2H-pyran-2-carboxylate]
0.31 nM | 0.21 nM | Cc1cc(Nc2nn([C@]3(CC#N)CC[C@@H](C(=O)OC(C)(C)C)OC3)c3cc[nH]c(=O)c23)ccc1C(=O)N1CCOC(C)C1 (single isomer, unassigned) [Example 20-10, (2S,5S)-tert-butyl 5-(cyanomethyl)-5-(3-((3-methyl-4-((S or R)-2-methylmorpholine-4-carbonyl)phenyl)amino)-4-oxo-4,5-dihydro-1H-pyrazolo[4,3-c]pyridin-1-yl)tetrahydro-2H-pyran-2-carboxylate]
1.15 nM | 0.14 nM | CN(C)S(=O)(=O)c1ccc(Nc2nn(C3(CC#N)CCN(C(=O)CCC4CC4)CC3)c3cc[nH]c(=O)c23)cc1 [Example 9-11, 4-({1-[4-(cyanomethyl)-1-(3-cyclopropylpropanoyl)piperidin-4-yl]-4-oxo-4,5-dihydro-1H-pyrazolo[4,3-c]pyridin-3-yl}amino)-N,N-dimethylbenzenesulfonamide]
102 nM | 1.14 nM | COC1CN([C@H]2CC[C@@](CC#N)(n3nc(Nc4ccc(Cl)cc4)c4c(=O)[nH]ccc43)CC2)C1 [Example 18-9, Cis 2-(1-(3-((4-chlorophenyl)amino)-4-oxo-4,5-dihydro-1H-pyrazolo[4,3-c]pyridin-1-yl)-4-(3-methoxyazetidin-1-yl)cyclohexyl)acetonitrile]
